Data published in ChEMBL document CHEMBL3414464, “Design, synthesis, and evaluation of NO-donor containing carbonic anhydrase inhibitors to lower intraocular pressure” (J Med Chem, 2015).
≈ marks a conversion by molar mass, not a printed value.

Columns and labels:
[1] = Drug level in iris ciliary body of pigmented male Dutch-belted rabbit treated with 2 x 25 uL topical dose of formulated compound in each eye and measured 4 hrs post dose by LC-MS/MS method; format: ADME, tissue-based, Oryctolagus cuniculus; settings: in vivo, topical_or_ocular
[2] = Drug level in aqueous humor of pigmented male Dutch-belted rabbit treated with 2 x 25 uL topical dose of formulated compound in each eye and measured 4 hrs post dose by LC-MS/MS method; format: ADME, tissue-based, Oryctolagus cuniculus; settings: in vivo, topical_or_ocular
Oryctolagus cuniculus = assay: Reduction in intraocular pressure in pigmented male Dutch-belted rabbit assessed as intraocular pressure level at trough treated with 2% 2 x 25 uL topical dose of formulated compound in right eye and measured after 1 to 2 hrs by non-contact tonometry; format: functional
[3] = (§1) Drug level in iris ciliary body of pigmented male Dutch-belted rabbit assessed as compound formation treated with 2 x 25 uL topical dose of formulated (4S,6S)-4-Ethylamino-6-(3-nitrooxy-propyl)-7,7-dioxo-4,5,6,7-tetrahydro-7lambda6-thieno[2,3-b]thiopyran-2-sulfonic acid amide in each eye and measured 4 hrs post dose by LC-MS/MS method; format: ADME, tissue-based, Oryctolagus cuniculus; settings: in vivo, topical_or_ocular
[4] = as §1, with “aqueous humor” for “iris ciliary body”; format: ADME, tissue-based, Oryctolagus cuniculus; settings: in vivo, topical_or_ocular
Cynomolgus monkey [5] = assay: Reduction in intraocular pressure unilaterally lasered ocular hypertensive cynomolgus monkey treated with 2% 2 x 25 uL topical dose of formulated compound in right eye and measured after 2 hrs by ocular hypertension primate tonometry; format: functional, Macaca fascicularis
[6] = (§2) Drug level in iris ciliary body of pigmented male Dutch-belted rabbit assessed as compound formation treated with 2 x 25 uL topical dose of formulated (R)-3-(4-(Ethylamino)-1,1-dioxido-6-sulfamoyl-3,4-dihydro-2Hthieno[3,2-e][1,2]thiazin-2-yl)propyl nitrate in each eye and measured 4 hrs post dose by LC-MS/MS method; format: ADME, tissue-based, Oryctolagus cuniculus; settings: in vivo, topical_or_ocular
[7] = as §2, with “aqueous humor” for “iris ciliary body”; format: ADME, tissue-based, Oryctolagus cuniculus; settings: in vivo, topical_or_ocular
Cynomolgus monkey [8] = assay: Reduction in intraocular pressure unilaterally lasered ocular hypertensive cynomolgus monkey treated with 1% 2 x 25 uL topical dose of formulated compound in right eye and measured after 2 hrs by ocular hypertension primate tonometry; format: functional, Macaca fascicularis

Description for physchem: Solubility of the compound

Compound	Drug uptake [1]	Drug uptake [2]	Activity (Oryctolagus cuniculus)	solubility (physchem)	other results
CCN[C@H]1C[C@H](CCCO[N+](=O)[O-])S(=O)(=O)c2sc(S(N)(=O)=O)cc21	Active	Active	5 mmHg	11300 µg/mL (≈ 27.3 mM)	
CCN[C@H]1C[C@H](CCCO)S(=O)(=O)c2sc(S(N)(=O)=O)cc21					Drug metabolism [3]: metabolite_detected; Drug metabolism [4]: metabolite_detected
CCN[C@H]1CN(CCCO[N+](=O)[O-])S(=O)(=O)c2sc(S(N)(=O)=O)cc21	Active	Active	5 mmHg	2200 µg/mL (≈ 5.31 mM)	Activity (Cynomolgus monkey [5]): 10.5 mmHg
CCN[C@H]1CN(CCCO)S(=O)(=O)c2sc(S(N)(=O)=O)cc21					Drug metabolism [6]: metabolite_detected; Drug metabolism [7]: metabolite_detected
CCN[C@H]1CN(CCCOC)S(=O)(=O)c2sc(S(N)(=O)=O)cc21 [BRINZOLAMIDE]				500 µg/mL (≈ 1.3 mM)	Activity (Cynomolgus monkey [8]): 2 mmHg
